In series [1] the target is hP2Y4 Receptor (Homo sapiens, UniProt P51582). Kind of series: Inhibition of agonist-induced calcium mobilization, recombinant receptor in human astrocytoma cells. It counts as cell-based. Conditions: mean ± SEM. The procedure: (§1) Inhibition of agonist-induced calcium mobilization was determined as previously described (Kaulich M. et al, Drug Dev. Res. 2003, 59, 72-81) using NG108-15 cells for the mouse P2Y2 receptor, or human recombinant P2Y receptors stably expressed in human astrocytoma cells (El-Tayeb, A. et al., J. Med. Chem. 2006, 49, 7076-87).
(§2) The data were analyzed using GraphPad Prism 4.0 (GraphPad Software, Inc., San Diego, Calif.).

Series [2] concerns the target rP2Y6 Receptor (Rattus norvegicus, UniProt Q63371). The series is described as above. The class given is cell-based. Conditions: mean ± SEM. As to the method:
as §1, §2

The target in series [3] is T1, human platelet P2Y12 receptors (Homo sapiens, UniProt Q9H244).
T1 construct: Membranes were prepared from human outdated platelets from the blood bank; from tissue; host or cells: human platelets (University of Bonn blood bank), membrane preparation
Kind of series: Radioligand binding assay with [3H]PSB-0413 at human platelet membranes. The procedure:
Membranes were prepared from human outdated platelets from the blood bank. Outdated human platelets were obtained from the University of Bonn blood bank 4-5 days after donation. Platelet rich plasma was washed by centrifugation (10 min at 1000 g) in a buffer consisting of 50 mM Tris-HCl, pH 7.4, 5 mM EDTA and 150 mM NaCl. The supernatant was centrifuged twice (48400 g for 60 min) and the resultant platelet pellet were resuspended in 5 mM Tris-HCl (pH 7.4) containing 5 mM EDTA. The platelets were homogenized by a homogenizer. The final suspension was stored frozen as multiple aliquots at −80° C. until needed. Protein concentrations were determined by the method of Lowry using a Sigma Chemie protein assay kit.
Radioligand binding assays were performed using 5 nM [^3H]PSB-0413 and 100 μg of protein in Tris-HCl buffer 50 mM, pH 7.4, as previously described. (El-Tayeb, A., Griessmeier, K. J, Müller, C. E. Bioorg. Med. Chem. Lett. 2005, 15, 5450-52; Atzler, K. Doctoral Thesis, University of Bonn, 2006). Competition by 10 μM of test compound was initially determined. The mixture was incubated for 1 h at rt followed by filtration through GF/B filters. Nonspecific binding was determined with 1 mM ADP or 250 μM RB 2. […] At least three independent experiments were performed each in triplicate.
as §2

[4] abbreviates: human platelet membranes, 5 nM [3H]PSB-0413, 1 h at rt, mean ± SEM, read-out: hP2Y12 Receptor Ki [μM ± SEM] vs. [3H]PSB-0413.

Like-named read-outs stand apart in the source and are kept apart here.

T1 sequence (Q9H244 whole entry): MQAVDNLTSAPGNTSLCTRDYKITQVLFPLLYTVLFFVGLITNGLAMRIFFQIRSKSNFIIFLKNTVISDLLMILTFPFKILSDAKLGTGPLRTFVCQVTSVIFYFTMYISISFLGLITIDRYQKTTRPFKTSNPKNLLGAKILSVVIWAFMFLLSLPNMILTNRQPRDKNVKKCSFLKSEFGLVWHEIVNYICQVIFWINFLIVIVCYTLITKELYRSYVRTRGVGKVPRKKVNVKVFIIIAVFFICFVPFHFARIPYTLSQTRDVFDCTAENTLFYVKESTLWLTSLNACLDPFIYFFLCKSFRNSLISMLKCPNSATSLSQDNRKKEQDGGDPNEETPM
Chain of rP2Y6 Receptor (Q63371 whole entry): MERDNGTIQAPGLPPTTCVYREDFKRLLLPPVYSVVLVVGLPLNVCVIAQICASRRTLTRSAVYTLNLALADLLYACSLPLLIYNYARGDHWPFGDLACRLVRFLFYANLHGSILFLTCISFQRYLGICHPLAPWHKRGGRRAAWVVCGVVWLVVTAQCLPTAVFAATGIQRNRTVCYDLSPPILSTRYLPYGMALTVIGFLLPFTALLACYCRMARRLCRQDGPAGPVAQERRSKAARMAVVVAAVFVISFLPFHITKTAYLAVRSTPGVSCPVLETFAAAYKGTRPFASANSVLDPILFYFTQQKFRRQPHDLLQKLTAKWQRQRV
Chain of hP2Y4 Receptor (P51582 whole entry): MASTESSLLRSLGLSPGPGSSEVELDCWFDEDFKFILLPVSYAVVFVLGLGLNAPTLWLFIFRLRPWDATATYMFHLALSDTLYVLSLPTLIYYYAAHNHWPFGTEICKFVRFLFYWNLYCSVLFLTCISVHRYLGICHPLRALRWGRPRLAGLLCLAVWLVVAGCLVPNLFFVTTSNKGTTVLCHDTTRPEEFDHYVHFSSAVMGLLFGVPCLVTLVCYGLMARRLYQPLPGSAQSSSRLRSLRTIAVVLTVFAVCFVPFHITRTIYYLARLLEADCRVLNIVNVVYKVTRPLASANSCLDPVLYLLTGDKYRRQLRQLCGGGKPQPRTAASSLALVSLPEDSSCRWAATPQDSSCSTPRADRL

In turn, `Nc1c(S(=O)(=O)[O-])cc(Nc2ccccc2O)c2c1C(=O)c1ccccc1C2=O.[Na+]` had a melting point above 300 °C.

The compound `Nc1c(S(=O)(=O)[O-])cc(Nc2ccc(O)cc2)c2c1C(=O)c1ccccc1C2=O.[Na+]` returned a melting point above 300 °C.

On to `Nc1ccc(Nc2cc(S(=O)(=O)[O-])c(N)c3c2C(=O)c2ccccc2C3=O)cc1.[Na+]`, for which the melting point is above 300 °C.

`Nc1cc(Nc2cc(S(=O)(=O)[O-])c(N)c3c2C(=O)c2ccccc2C3=O)cc(C(=O)O)c1.[Na+]` came in with a melting point above 300 °C.

In the case of `Nc1c(S(=O)(=O)[O-])cc(Nc2ccc(S(=O)(=O)[O-])cc2)c2c1C(=O)c1ccccc1C2=O.[Na+].[Na+]`, the melting point is above 300 °C.

The compound `Nc1cccc(Nc2cc(S(=O)(=O)[O-])c(N)c3c2C(=O)c2ccccc2C3=O)c1.[Na+]` returned a melting point above 300 °C.

Regarding `Nc1c(S(=O)(=O)[O-])cc(Nc2cc(Cl)ccc2C(=O)O)c2c1C(=O)c1ccccc1C2=O.[Na+]`, the melting point is above 300 °C.

Compound `Nc1c(S(=O)(=O)[O-])cc(Nc2ccccc2C(=O)O)c2c1C(=O)c1ccccc1C2=O.[Na+]` displayed a melting point above 300 °C.

`Nc1c(S(=O)(=O)O)cc(Nc2cccc(S(=O)(=O)O)c2)c2c1C(=O)c1ccccc1C2=O` [Entry 1]: the figures for the IC50 in series [1] and in series [2] were 18.5 ± 2.5 µM and around 100 µM, respectively. The Ki in series [3] (setting [4]) amounted to 3.81 ± 1.08 µM.

Take `Nc1c(S(=O)(=O)O)cc(Nc2ccc(S(=O)(=O)O)cc2)c2c1C(=O)c1ccccc1C2=O` [Entry 2]: in series [3] (setting [4]), the Ki came out at 3.13 ± 0.39 µM.

For the compound `Nc1cc(Nc2cc(S(=O)(=O)O)c(N)c3c2C(=O)c2ccccc2C3=O)ccc1S(=O)(=O)O` [Entry 4], in series [3] (setting [4]), the Ki was 2.1 ± 0.47 µM.

`Nc1cc(Nc2cc(S(=O)(=O)O)c(N)c3c2C(=O)c2ccccc2C3=O)cc(C(=O)O)c1` [Entry 6]: the Ki in series [3] (setting [4]) stood at 7.07 ± 1.7 µM.

In the case of `Nc1c(S(=O)(=O)O)cc(Nc2cc(Cl)ccc2C(=O)O)c2c1C(=O)c1ccccc1C2=O` [Entry 7], in series [3] (setting [4]), the Ki is 12.2 ± 0.3 µM.

As for `Nc1c(S(=O)(=O)O)cc(Nc2ccccc2C(=O)O)c2c1C(=O)c1ccccc1C2=O` [Entry 8], in series [3] (setting [4]), the Ki was found to be 25.1 ± 7 µM.

For the compound `Nc1ccc(Nc2cc(S(=O)(=O)O)c(N)c3c2C(=O)c2ccccc2C3=O)c(S(=O)(=O)O)c1` [Entry 9], the Ki in series [3] (setting [4]) came to 19.7 ± 8.27 µM.

Turning to `Nc1c(S(=O)(=O)O)cc(Nc2ccc(Cl)cc2C(=O)O)c2c1C(=O)c1ccccc1C2=O` [Entry 10], the Ki in series [3] (setting [4]) is 12.3 ± 1.7 µM.

For `Nc1c(S(=O)(=O)O)cc(Nc2ccccc2O)c2c1C(=O)c1ccccc1C2=O` [Entry 11], the Ki in series [3] (setting [4]) was around 10 µM.

Consider `Nc1c(S(=O)(=O)O)cc(Nc2ccc(O)cc2)c2c1C(=O)c1ccccc1C2=O` [Entry 12], for which, in series [3] (setting [4]), the Ki is around 10 µM.

As for `Nc1c(S(=O)(=O)O)cc(Nc2ccc(Cc3ccccc3)cc2)c2c1C(=O)c1ccccc1C2=O` [Entry 13], in series [3] (setting [4]), the Ki is 0.614 µM.

For the compound `Nc1cccc(Nc2cc(S(=O)(=O)O)c(N)c3c2C(=O)c2ccccc2C3=O)c1` [Entry 14], the Ki in series [3] (setting [4]) is above 10 µM.

As for `Nc1c(S(=O)(=O)O)cc(Nc2ccc(Sc3ccccc3)cc2)c2c1C(=O)c1ccccc1C2=O` [Entry 19], in series [3] (setting [4]), the Ki amounted to 0.884 ± 0.525 µM.

Turning to `COc1ccc(CCNc2cc(S(=O)(=O)O)c(N)c3c2C(=O)c2ccccc2C3=O)cc1OC` [Entry 21], the IC50 in series [1] is above 30 µM; in series [2], above 100 µM.

Turning to `Nc1c(S(=O)(=O)O)cc(Nc2ccc(Oc3ccccc3)c(S(=O)(=O)O)c2)c2c1C(=O)c1ccccc1C2=O` [Entry 22], the Ki in series [3] (setting [4]) turned out to be 0.063 ± 0.009 µM.

Regarding `Nc1c(S(=O)(=O)O)cc(Nc2ccc(Nc3ccccc3)c(S(=O)(=O)O)c2)c2c1C(=O)c1ccccc1C2=O` [Entry 24], the Ki in series [3] (setting [4]) was found to be 0.0249 ± 0.0032 µM.

Turning to `Cc1cc(Nc2ccc(Nc3ccccc3)c(S(=O)(=O)O)c2)c2c(c1N)C(=O)c1ccccc1C2=O` [Entry 30], in series [3] (setting [4]), the Ki was 0.541 µM.

On to `Nc1c(S(=O)(=O)O)cc(Nc2ccc(S(=O)(=O)O)c(Nc3nc(Cl)nc(Cl)n3)c2)c2c1C(=O)c1ccccc1C2=O` [Entry 31], for which the Ki in series [3] is 17.1 ± 7.8 µM.

With `Nc1c(S(=O)(=O)O)cc(Nc2ccc(Nc3nc(Cl)nc(Cl)n3)c(S(=O)(=O)O)c2)c2c1C(=O)c1ccccc1C2=O` [Entry 32], in series [3] (setting [4]), the Ki worked out at 2.45 ± 1 µM.

For `Nc1c(S(=O)(=O)O)cc(Nc2cc(Nc3nc(Cl)nc(Cl)n3)cc(C(=O)O)c2)c2c1C(=O)c1ccccc1C2=O` [Entry 34], in series [3] (setting [4]), the Ki stood at 3.76 ± 1.03 µM.

Turning to `Nc1c(S(=O)(=O)O)cc(Nc2ccc(Nc3nc(Cl)nc(Cl)n3)cc2)c2c1C(=O)c1ccccc1C2=O` [Entry 35], the Ki in series [3] (setting [4]) came to 1.9 ± 0.24 µM.

As for `Nc1c(S(=O)(=O)O)cc(Nc2ccc(Nc3ncccn3)cc2)c2c1C(=O)c1ccccc1C2=O` [Entry 36], in series [3] (setting [4]), the Ki was around 10 µM.

As to `Nc1c(S(=O)(=O)O)cc(Nc2ccc(Nc3nc(O)nc(O)n3)c(S(=O)(=O)O)c2)c2c1C(=O)c1ccccc1C2=O` [Entry 38], the Ki in series [3] (setting [4]) is around 10 µM.

`Nc1c(S(=O)(=O)O)cc(Nc2ccc(Nc3nc(O)nc(O)n3)cc2S(=O)(=O)O)c2c1C(=O)c1ccccc1C2=O` [Entry 39]: the Ki in series [3] (setting [4]) was above 10 µM.

For the compound `Nc1c(S(=O)(=O)[O-])cc(Nc2cccc(C(=O)O)c2)c2c1C(=O)c1ccccc1C2=O.[Na+]` [Example 3, Sodium 1-amino-4-(3-carboxyphenylamino)-9,10-dioxo-9,10-dihydroanthracene 2-sulfonate], the melting point was above 300 °C.

For `Nc1c(S(=O)(=O)[O-])cc(Nc2ccc(C(=O)O)cc2)c2c1C(=O)c1ccccc1C2=O.[Na+]` [Example 4, Sodium 1-amino-4-(4-carboxyphenylamino)-9,10-dioxo-9,10-dihydroanthracene 2-sulfonate], the melting point is above 300 °C.

`Nc1ccccc1Nc1cc(S(=O)(=O)[O-])c(N)c2c1C(=O)c1ccccc1C2=O.[Na+]` [Example 5, Sodium 1-amino-4-(2-aminophenylamino)-9,10-dioxo-9,10-dihydroanthracene 2-sulfonate] yielded a melting point above 300 °C.

For the compound `Nc1c(S(=O)(=O)[O-])cc(Nc2ccc(CC(=O)O)cc2)c2c1C(=O)c1ccccc1C2=O.[Na+]` [Example 15, Sodium 1-amino-4-(4-carboxymethylphenylamino)-9,10-dioxo-9,10-dihydro-anthracene 2-sulfonate], the melting point is above 300 °C.

For the compound `COc1cccc(Nc2cc(S(=O)(=O)[O-])c(N)c3c2C(=O)c2ccccc2C3=O)c1.[Na+]` [Example 18, Sodium 1-amino-4-(3-methoxyphenylamino)-9,10-dioxo-9,10-dihydroanthracene 2-sulfonate], the melting point was above 300 °C.

`COc1ccc(Nc2cc(S(=O)(=O)[O-])c(N)c3c2C(=O)c2ccccc2C3=O)cc1.[Na+]` [Example 19, Sodium 1-amino-4-(4-methoxyphenylamino)-9,10-dioxo-9,10-dihydroanthracene 2-sulfonate] displayed a melting point above 300 °C.

Take `Nc1c(S(=O)(=O)[O-])cc(Nc2ccc(F)cc2)c2c1C(=O)c1ccccc1C2=O.[Na+]` [Example 20, Sodium 1-amino-4-(4-fluorophenylamino)-9,10-dioxo-9,10-dihydroanthracene 2-sulfonate]: the melting point is above 300 °C.

As for `Nc1c(S(=O)(=O)[O-])cc(Nc2cccc(Br)c2)c2c1C(=O)c1ccccc1C2=O.[Na+]` [Example 21, Sodium 1-amino-4-(3-bromophenylamino)-9,10-dioxo-9,10-dihydroanthracene 2-sulfonate], the melting point is above 300 °C.

For the compound `Cc1cc(C)cc(Nc2cc(S(=O)(=O)[O-])c(N)c3c2C(=O)c2ccccc2C3=O)c1.[Na+]` [Example 22, Sodium 1-amino-4-(3,5-dimethylphenylamino)-9,10-dioxo-9,10-dihydroanthracene 2-sulfonate], the melting point was above 300 °C.

As to `Cc1c(N)cccc1Nc1cc(S(=O)(=O)[O-])c(N)c2c1C(=O)c1ccccc1C2=O.[Na+]` [Example 24, Sodium 1-amino-4-(3-amino-2-methylphenylamino)-9,10-dioxo-9,10-dihydroanthracene 2-sulfonate], the melting point was above 300 °C.

Compound `Nc1c(S(=O)(=O)[O-])cc(Nc2ccc(O)c(C(=O)O)c2)c2c1C(=O)c1ccccc1C2=O.[Na+]` [Example 25, Sodium 1-amino-4-(3-carboxy-4-hydroxyphenylamino)-9,10-dioxo-9,10-dihydroanthracene 2-sulfonate] came in with a melting point above 300 °C.

`Nc1c(S(=O)(=O)[O-])cc(Nc2ccccc2S(=O)(=O)[O-])c2c1C(=O)c1ccccc1C2=O.[Na+].[Na+]` [Example 26, Disodium 1-amino-4-(2-sulfophenylamino)-9,10-dioxo-9,10-dihydroanthracene 2-sulfonate] had a melting point above 300 °C.

(Values after patent publication US20100210654A1, “NOVEL P2Y12 RECEPTOR ANTAGONISTS” (RHEINISCHE FRIEDRICH-WILHELMS UNIVERSITÄT BONN, priority 2007, published 2010).)
